Consider six compounds from ChEMBL document CHEMBL1687797, “A mecA-negative strain of methicillin-resistant Staphylococcus aureus with high-level β-lactam resistance contains mutations in three genes” (2010).

One may read the MIC as the least concentration at which growth counts as inhibited. A higher MIC goes with weaker potency.

What all share (format): functional
The test system of test [1] is Staphylococcus aureus. The experiment in a line: Antimicrobial activity against beta-lactam-resistant and chromosomal mecA deficient Staphylococcus aureus CRB harboring PBP4 E183A F241R, GdpP N182K and AcrB I960V mutant genes selected after 21 days of serial passage in ceftobiprole. To be noted: 504 h.
Test [2] concerns Staphylococcus aureus. In words: Antimicrobial activity against methicillin-, tetracycline-susceptible and chromosomal mecA deficient Staphylococcus aureus COLnex.
The subject of test [3] is Staphylococcus aureus. The experiment in a line: Antimicrobial activity against methicillin-resistant and tetracycline-sensitive Staphylococcus aureus COLn.
The subject of test [4] is Staphylococcus aureus. In words: Antimicrobial activity against methicillin-resistant Staphylococcus aureus COL.
Test [5] relates to Staphylococcus aureus. The experiment in a line: Antimicrobial activity against beta-lactam-resistant and chromosomal mecA deficient Staphylococcus aureus CRB harboring PBP4 E183A F241R, GdpP N182K and AcrB I960V mutant genes selected after 21 days of serial passage. The conditions noted are these: 504 h.

Molecules are shown by their SMILES. In brackets after ≈: the same amount, converted by molar mass. A value given as a limit tells only on which side of the number the result lay.

With `CC1(C)S[C@@H]2[C@H](NC(=O)[C@H](N)c3ccccc3)C(=O)N2[C@H]1C(=O)O` [AMPICILLIN], the minimal inhibitory concentration (MIC) in test [1] is 256 µg/mL (≈ 733 µM); in test [2] it was less than 0.25 µg/mL.
With `Cc1nnc(SCC2=C(C(=O)O)N3C(=O)[C@@H](NC(=O)Cn4cnnn4)[C@H]3SC2)s1` [CEFAZOLIN], the minimum inhibitory concentration (MIC) in test [3] was 256 µg/mL (≈ 563 µM); in test [1] it was greater than 256 µg/mL; in test [2], 0.5 µg/mL (≈ 1.1 µM).
For `CO[C@@]1(NC(=O)Cc2cccs2)C(=O)N2C(C(=O)O)=C(COC(N)=O)CS[C@@H]21` [CEFOXITIN], the results for the MIC in test [3], in test [1] and in test [2] were 256 µg/mL (≈ 599 µM), 8 µg/mL (≈ 18.7 µM) and 4 µg/mL (≈ 9.36 µM), respectively.
For `Nc1nc(/C(=N/O)C(=O)N[C@@H]2C(=O)N3C(C(=O)O)=C(/C=C4\CCN([C@@H]5CCNC5)C4=O)CS[C@H]23)ns1` [CEFTOBIPROLE], the minimum inhibitory concentration (MIC) is 1 µg/mL (≈ 1.87 µM) in test [3]; 128 µg/mL (≈ 239 µM) in test [1]; 1 µg/mL (≈ 1.87 µM) in test [4]; less than 0.25 µg/mL in test [2]; 128 µg/mL (≈ 239 µM) in test [5].
Turning to `CO/N=C(\C(=O)N[C@@H]1C(=O)N2C(C(=O)O)=C(CSc3nc(=O)c(O)nn3C)CS[C@H]12)c1csc(N)n1` [CEFTRIAXONE], the results for the minimal inhibitory concentration (MIC) in test [3], in test [1] and in test [2] were greater than 256 µg/mL, 256 µg/mL (≈ 462 µM) and 4 µg/mL (≈ 7.21 µM), respectively.
With `CCOc1ccc2ccccc2c1C(=O)N[C@@H]1C(=O)N2[C@@H]1SC(C)(C)[C@@H]2C(=O)O` [NAFCILLIN], the MIC in test [3] is 256 µg/mL (≈ 618 µM); in test [1], 128 µg/mL (≈ 309 µM); in test [2], 0.5 µg/mL (≈ 1.21 µM).
